The text below walks through data of PMC11408249, “Non-invasive in vivo imaging of changes in Collagen III turnover in myocardial fibrosis” (npj Imaging, 2024).

No end group written: not given here.

Experiment [1] relates to COL3-induced platelet aggregation. The settings on record: cited from earlier work. The source says:
(§1) The two peptides, DARKSEVQK (Collagen Binding Probe 1, CBP1) and TEFPLRMRDWLKN (CBP2), were identified from reported protein-protein interaction studies between collagen and other proteins[41],[43]. […] The TEFPLRMRDWLKN peptide is part of the secreted protein acidic and rich cysteine (SPARC) that binds to fibrillary collagens. The binding interaction between SPARC and collagens regulates collagen fibrillogenesis ...

In experiment [2] the target is T1, COL3 (Homo sapiens, UniProt P02461).
T1 sequence (P02461 154-1221 limits assumed): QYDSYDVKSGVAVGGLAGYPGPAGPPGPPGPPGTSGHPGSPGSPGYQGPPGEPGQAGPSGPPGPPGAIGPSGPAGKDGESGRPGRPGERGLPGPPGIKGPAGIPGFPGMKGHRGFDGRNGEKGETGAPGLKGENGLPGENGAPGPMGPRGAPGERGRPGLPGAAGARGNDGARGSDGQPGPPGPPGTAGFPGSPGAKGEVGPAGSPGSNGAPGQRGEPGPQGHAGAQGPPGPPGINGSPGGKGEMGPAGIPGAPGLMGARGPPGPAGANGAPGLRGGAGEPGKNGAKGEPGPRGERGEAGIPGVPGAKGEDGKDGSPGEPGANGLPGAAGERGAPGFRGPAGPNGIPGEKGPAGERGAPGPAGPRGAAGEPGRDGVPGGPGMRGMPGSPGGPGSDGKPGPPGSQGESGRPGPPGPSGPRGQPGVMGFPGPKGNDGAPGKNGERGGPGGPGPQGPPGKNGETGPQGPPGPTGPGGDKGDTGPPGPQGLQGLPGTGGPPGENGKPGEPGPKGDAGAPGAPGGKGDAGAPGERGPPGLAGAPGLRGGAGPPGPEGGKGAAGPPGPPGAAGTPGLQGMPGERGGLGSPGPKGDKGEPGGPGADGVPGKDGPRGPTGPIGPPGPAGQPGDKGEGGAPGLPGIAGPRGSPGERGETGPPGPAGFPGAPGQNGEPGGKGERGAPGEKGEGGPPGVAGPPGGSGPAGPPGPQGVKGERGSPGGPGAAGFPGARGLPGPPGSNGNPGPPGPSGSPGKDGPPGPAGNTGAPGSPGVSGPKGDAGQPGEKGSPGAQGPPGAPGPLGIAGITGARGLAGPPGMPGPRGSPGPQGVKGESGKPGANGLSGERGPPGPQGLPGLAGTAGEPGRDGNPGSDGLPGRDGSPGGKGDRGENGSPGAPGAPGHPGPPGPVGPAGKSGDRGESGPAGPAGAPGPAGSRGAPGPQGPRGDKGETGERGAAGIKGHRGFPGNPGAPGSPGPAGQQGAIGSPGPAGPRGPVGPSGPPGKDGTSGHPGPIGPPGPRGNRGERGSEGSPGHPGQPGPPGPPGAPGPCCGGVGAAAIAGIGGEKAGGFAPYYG
As to conditions: cited from earlier work.
Text: as §1

Experiment [3] has as its target T2, COL1 fibres (Mus musculus, UniProt P11087+Q01149).
T2 construct: from tissue; host or cells: sections of the remodelled aortic wall of ApoE-/- mice
Nature of the experiment: Tissue co-localisation of fluorescent probe with COL1 fibres. Further details: species or system mice. As to conditions: aortic tissue, murine model of vascular remodelling. The source says: (§2) The monomeric molecular probes ending with a N-terminus free DOTAMA chelator and with a C-terminus free carboxylic group were custom synthesised by Peptide Synthetics Ltd (Hampshire, United Kingdom) with a purity of >95%. The DOTAMA collagen-binding peptides were complexed in house with Gd(III) to obtain a contrast agent for MR molecular imaging, or with Eu(III) for in vitro binding studies using Time-Resolved Fluorescence (TRF) plate assays, or ^68Ga(III) for PET biodistribution studies. Metal complexation of the DOTAMA derivatives was performed in-house, by reacting the desired lanthanide ion (Gd^3+, Eu^3+) in a 1.05:1 L:M molar ratio at pH 5.5 and room temperature. Reaction evolution was confirmed by xylenol orange method. Upon reaction competition, the pH was adjusted to 7 and the samples were lyophilised and stored at −20 °C. The final concentration of the Gd(III) and Eu(III) complex solutions was assessed by ICP-OES and/or BMS. For tissue co-localisation experiments, the CBP1 was also synthesised in the fluorescently labelled form by conjugating a Rhodamine B derivative to its N-terminus (compound Rh-CBP1).

Experiment [4] has as its target T3, COL3-rich fibres (Mus musculus, UniProt P08121).
T3 construct: Signal enhancement seen on the MRI coincided with COL3 fibres detected by histology; from tissue; host or cells: remodelled abdominal aortic wall of male ApoE-/- mice, in vivo and in excised sections
T3 sequence (P08121 155-1219 limits assumed): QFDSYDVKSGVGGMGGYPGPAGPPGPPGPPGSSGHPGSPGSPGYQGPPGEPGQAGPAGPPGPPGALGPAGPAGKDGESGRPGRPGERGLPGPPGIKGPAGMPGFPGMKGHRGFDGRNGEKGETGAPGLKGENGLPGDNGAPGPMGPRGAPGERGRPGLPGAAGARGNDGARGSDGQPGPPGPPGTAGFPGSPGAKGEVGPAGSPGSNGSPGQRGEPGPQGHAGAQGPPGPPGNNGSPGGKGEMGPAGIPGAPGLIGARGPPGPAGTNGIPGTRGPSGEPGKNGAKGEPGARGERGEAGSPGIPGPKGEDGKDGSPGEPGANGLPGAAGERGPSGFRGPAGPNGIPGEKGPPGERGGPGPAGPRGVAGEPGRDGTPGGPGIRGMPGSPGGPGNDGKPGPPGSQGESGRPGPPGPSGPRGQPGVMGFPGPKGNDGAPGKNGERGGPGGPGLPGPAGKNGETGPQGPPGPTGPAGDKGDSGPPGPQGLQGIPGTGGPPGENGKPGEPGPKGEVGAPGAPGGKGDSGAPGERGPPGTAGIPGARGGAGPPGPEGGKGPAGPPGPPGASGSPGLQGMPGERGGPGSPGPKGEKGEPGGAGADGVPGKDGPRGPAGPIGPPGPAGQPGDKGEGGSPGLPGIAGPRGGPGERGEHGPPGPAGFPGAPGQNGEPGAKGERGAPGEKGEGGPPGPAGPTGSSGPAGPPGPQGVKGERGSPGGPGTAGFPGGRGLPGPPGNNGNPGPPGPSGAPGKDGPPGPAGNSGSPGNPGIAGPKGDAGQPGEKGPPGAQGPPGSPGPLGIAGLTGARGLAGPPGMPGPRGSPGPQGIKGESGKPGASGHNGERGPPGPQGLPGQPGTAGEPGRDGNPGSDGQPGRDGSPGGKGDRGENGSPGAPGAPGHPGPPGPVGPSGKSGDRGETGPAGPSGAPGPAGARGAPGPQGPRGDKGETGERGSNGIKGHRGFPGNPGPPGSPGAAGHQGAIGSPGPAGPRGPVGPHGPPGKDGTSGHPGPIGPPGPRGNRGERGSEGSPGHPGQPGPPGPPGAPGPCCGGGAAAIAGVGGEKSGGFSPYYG
As to the kind of experiment: Tissue co-localisation of fluorescent probe with COL3 fibres. Further details: species or system mice. As to conditions: murine model of vascular remodelling.
Text: as §2

The target in experiment [5] is T4, Collagen type III (COL3) (Homo sapiens, UniProt P02461).
T4 chain: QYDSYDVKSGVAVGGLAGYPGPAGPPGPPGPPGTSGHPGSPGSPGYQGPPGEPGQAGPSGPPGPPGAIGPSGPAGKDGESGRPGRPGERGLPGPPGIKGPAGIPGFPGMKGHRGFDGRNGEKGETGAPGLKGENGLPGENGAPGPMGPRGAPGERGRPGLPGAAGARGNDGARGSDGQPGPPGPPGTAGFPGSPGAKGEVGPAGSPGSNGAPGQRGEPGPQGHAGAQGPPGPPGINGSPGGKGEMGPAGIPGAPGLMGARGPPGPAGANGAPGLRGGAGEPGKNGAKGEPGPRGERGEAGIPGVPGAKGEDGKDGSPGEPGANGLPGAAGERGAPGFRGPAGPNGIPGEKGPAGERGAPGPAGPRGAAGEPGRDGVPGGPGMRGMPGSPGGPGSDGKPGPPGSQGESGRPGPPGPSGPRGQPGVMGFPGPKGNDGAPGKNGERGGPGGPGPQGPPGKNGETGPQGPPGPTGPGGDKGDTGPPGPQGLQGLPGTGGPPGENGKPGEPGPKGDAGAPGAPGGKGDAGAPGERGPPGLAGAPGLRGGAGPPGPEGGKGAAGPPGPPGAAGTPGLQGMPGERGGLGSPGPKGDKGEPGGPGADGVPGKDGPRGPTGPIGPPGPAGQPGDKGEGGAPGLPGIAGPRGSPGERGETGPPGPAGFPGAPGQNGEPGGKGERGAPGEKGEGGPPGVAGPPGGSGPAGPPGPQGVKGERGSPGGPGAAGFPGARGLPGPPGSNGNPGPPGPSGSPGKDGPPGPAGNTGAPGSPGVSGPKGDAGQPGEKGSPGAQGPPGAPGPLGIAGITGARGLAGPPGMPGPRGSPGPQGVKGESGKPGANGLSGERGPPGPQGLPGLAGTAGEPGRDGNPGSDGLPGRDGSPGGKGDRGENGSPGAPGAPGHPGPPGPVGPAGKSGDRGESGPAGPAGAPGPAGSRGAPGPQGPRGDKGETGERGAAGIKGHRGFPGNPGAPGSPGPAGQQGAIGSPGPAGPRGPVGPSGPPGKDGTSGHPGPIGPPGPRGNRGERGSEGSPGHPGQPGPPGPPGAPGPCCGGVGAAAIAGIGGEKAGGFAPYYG
Nature of the experiment: competition Eu(III) time-resolved fluorescence assay.

T2 sequence (P11087 152-1207 limits assumed): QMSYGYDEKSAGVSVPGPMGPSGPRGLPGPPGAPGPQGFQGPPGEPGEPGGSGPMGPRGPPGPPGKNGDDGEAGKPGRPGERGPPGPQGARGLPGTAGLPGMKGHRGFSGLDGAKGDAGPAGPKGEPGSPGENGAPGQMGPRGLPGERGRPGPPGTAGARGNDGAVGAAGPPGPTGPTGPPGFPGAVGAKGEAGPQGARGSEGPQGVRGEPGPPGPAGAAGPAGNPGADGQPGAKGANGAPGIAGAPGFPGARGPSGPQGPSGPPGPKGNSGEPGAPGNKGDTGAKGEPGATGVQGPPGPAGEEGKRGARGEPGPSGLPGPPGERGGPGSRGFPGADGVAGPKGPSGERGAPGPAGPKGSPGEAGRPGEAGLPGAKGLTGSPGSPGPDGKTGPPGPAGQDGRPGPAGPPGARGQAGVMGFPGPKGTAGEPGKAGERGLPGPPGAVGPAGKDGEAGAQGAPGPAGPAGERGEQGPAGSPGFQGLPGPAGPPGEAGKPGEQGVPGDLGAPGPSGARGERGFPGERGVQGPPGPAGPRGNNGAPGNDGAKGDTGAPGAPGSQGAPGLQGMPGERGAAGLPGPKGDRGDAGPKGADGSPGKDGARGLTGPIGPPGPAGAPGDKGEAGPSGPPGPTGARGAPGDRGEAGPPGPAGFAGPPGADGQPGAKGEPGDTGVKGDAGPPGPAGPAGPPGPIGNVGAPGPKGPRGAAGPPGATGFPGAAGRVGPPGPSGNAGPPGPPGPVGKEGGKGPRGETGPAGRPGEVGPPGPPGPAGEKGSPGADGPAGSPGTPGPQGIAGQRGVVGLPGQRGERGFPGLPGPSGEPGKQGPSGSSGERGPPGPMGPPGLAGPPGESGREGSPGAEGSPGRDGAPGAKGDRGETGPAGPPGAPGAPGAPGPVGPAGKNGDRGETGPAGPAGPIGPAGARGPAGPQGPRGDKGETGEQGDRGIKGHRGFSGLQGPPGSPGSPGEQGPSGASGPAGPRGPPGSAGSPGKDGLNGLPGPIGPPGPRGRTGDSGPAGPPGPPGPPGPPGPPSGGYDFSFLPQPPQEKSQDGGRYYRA
T2 sequence (Q01149 86-1125 limits assumed): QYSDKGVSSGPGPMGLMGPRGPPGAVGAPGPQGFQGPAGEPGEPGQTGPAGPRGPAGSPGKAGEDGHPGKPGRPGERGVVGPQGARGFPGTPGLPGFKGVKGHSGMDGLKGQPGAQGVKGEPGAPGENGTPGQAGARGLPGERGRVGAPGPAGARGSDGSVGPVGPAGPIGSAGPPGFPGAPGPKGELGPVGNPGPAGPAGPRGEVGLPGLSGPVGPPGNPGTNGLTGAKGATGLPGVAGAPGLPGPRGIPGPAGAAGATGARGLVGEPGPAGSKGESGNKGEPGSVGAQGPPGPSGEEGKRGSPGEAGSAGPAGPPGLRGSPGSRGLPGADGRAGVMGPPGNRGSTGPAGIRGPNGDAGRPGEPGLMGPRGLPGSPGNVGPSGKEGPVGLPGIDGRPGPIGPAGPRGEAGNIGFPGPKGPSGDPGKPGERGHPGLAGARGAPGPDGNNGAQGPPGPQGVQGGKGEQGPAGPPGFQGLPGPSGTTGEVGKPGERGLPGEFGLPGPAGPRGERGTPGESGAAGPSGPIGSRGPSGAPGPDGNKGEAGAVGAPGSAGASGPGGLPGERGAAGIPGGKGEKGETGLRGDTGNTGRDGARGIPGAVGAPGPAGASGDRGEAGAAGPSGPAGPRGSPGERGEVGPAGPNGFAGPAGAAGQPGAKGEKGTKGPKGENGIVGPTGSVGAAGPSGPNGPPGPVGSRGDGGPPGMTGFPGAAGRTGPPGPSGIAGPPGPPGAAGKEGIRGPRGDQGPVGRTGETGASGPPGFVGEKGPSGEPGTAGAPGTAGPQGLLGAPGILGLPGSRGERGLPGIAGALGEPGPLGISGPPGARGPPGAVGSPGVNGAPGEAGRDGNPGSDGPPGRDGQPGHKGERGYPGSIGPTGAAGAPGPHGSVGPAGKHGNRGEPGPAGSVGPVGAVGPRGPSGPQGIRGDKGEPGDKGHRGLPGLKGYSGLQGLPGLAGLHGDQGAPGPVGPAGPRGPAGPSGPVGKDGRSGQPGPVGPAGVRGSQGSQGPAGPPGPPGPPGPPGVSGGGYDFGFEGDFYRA

For the molecule DARKSEVQK [CBP1], the “effect on COL3-induced platelet aggregation (in words)” value in experiment [1] was “inhibit”. In addition, in experiment [2], the “binding affinity towards COL3 compared with COL1 (in words)” value is given as “higher binding affinity towards COL3 than COL1”.
Take “DARKSEVQK [rhodamine-labelled CBP1 analogue probe, CBP1 in fluorescently labelled form, Rhodamine B derivative conjugated to its N-terminus]”: the “co-localisation to COL1 fibres (in words)” value in experiment [3] is listed as “no co-localisation”. Besides, the “co-localisation with COL3-rich fibres within the remodelled aortic wall (in words)” value in experiment [4] is “co-localisation of the fluorescent probe with COL3-rich fibres”.
What is called IC50 is the point on the concentration scale where inhibition reaches its midpoint. A high value points to lower potency. On to Ac-C((Gd-DOTAMA)4 tri‑lysine scaffold)DARKSEVQK (not fully specified) [[Gd-DOTAMA]4-CBP1], for which, in experiment [5], the 50% inhibitory concentration (IC50) is 200 µM.
